Measured values taken from US10517952B2, “Nucleophile-triggered degradable materials and methods of making and using the same” (GEORGIA TECH RESEARCH CORPORATION, priority 2014, dated 2019).

Assay: Erosion of swollen hydrogels (BODIPY erosion probe, time-lapse photography)
Type: physicochemical
Conditions: poorly controlled BODIPY labeling protocol
From the text: Degradation behavior of PEG-OND hydrogels under swelling conditions was investigated by labeling 3% of the 4-PEG-SH thiols with a BODIPY fluorophore via maleimide coupling before gelation. Gels prepared from this material are expected to have slightly lower crosslink densities and to degrade sooner when compared to gels formed without the erosion probe (FIG. 19). However, the probe-labeled macromer allowed convenient monitoring and comparison of erosion behavior under conditions relevant for biological applications. An increase in absorbance (504 nm) of the swelling buffer was observed as pieces containing the labeled PEG-thiol components were detached from the gel by rDA fragmentation (FIG. 2). […] Using combinations of linkers, it was possible to produce hydrogels with release profiles tuned between those of gels prepared from a single linker (FIG. 2C).
The 3.76 wt % solution of BODIPY-labeled 4-PEG-SH prepared above was used to form hydrogels using a method identical to unlabeled gels. Briefly, BODIPY-labeled 4-PEG-SH was combined with DMSO stocks of multivalent ONDs at equimolar concentration of thiol and electrophile. […] The absorbance of the supernatant at 504 nm was measured immediately to obtain a baseline measurement (t=0 hours), and the samples were placed into a 37° C. incubator. The absorbance of the swelling supernatant was monitored periodically by removal of 1 mL of buffer into a cuvette and measuring absorbance of the sample at 504 nm. […] This process was repeated for each sample until gel degradation was complete and the absorbance at 504 nm stabilized (100% dye released). In order to estimate the fraction of dye released from the non-degradable gel formed with bi s-EONB 8, a mock endpoint sample consisting of BODIPY-labeled 4-PEG-SH diluted to 3.5 wt % was prepared, and the absorbance at 504 nm was measured. […] The absorbance values collected over the course of the experiment were divided by the absorbance value measured after gel disintegration to obtain fractional dye release versus time. […]
The time at which the glass bead reached the bottom of the tube was recorded. […]

## COC(=O)C1=C(C(=O)OC)C2(CNC(=O)CCCC(=O)NCC34OC(C(C(=O)OC)=C3C(=O)OC)C3OC34)OC1C1OC12 (stereo not shown) [Linker 8, Tetramethyl 1,1′-((glutaroylbis(azanediyl))bis(methylene))bis(3,8-dioxatricyclo[3.2.1.0^2,4]oct-6-ene-6,7-dicarboxylate)]
  Dye released from gel made with multiply-labeled 4-PEG-SH macromer: up to 50%
